Laboratory results taken from PMC11873045, “Phytochemical profiling and various biological activities of Phlomis tuberosa L” (Scientific Reports, 2025).

What was measured:
α-glucosidase = α-glucosidase inhibition (PNPG); type: biochemical, Saccharomyces cerevisiae; conditions: at 200 µg/mL
Procedure: 50 µL of phosphate buffer (0.01 M pH 6.9), 10 µL of sample solution, 50 µL of α-glucosidase from Saccharomyces cerevisiae in phosphate buffer (0.01 M pH 6.0) and 25 µL of PNPG (4-N-nitrophenyl-α-d-glucopyranoside) in phosphate buffer (0.01 M pH 6.9) were mixed in a 96-well microplate. Then the solution was incubated for 20 min at 37 °C.

α-amylase = molecular target: T1, α-amylase (Sus scrofa, UniProt P00690); test: α-amylase inhibition (starch-iodine method); type: biochemical, porcine
T1 construct: host or cells: porcine pancreas
T1 sequence (P00690 16-511): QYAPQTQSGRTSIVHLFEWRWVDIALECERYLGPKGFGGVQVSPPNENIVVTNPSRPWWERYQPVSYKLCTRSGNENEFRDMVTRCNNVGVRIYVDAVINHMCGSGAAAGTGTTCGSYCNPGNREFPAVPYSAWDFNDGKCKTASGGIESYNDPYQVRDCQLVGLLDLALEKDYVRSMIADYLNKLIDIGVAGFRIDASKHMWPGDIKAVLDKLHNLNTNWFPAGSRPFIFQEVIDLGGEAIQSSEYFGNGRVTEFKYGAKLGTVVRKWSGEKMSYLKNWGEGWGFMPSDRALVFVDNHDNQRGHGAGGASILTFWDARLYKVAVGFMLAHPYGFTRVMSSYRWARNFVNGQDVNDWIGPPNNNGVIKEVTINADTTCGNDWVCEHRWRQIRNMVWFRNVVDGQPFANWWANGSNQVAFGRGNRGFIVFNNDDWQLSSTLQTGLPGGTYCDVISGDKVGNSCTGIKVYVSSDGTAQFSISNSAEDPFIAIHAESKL
Procedure: The α-amylase inhibitory activity was evaluated by using starch-iodine method[30]. The enzyme α-amylase from porcine pancreas was used and enzyme solution was prepared with phosphate buffer (20 mM pH = 6.9 phosphate buffer prepared with 6 mM NaCl). Then, 50 µL of α-amylase and 25 µL of sample solutions were mixed in a 96-well microplate. The mixture was pre-incubated for 10 min at 37 °C. Then, 50 µL of starch solution (0.05%) was added and incubated for 10 min at 37 °C. Following incubation, the reaction was completed by adding HCl (0.1 M, 25 µL) and Lugol (100 µL) solutions, and the absorbance was recorded at 565 nm.
(§1) IC50 values were calculated using a graph plotted between concentration (µg/mL) and percentage inhibition (%).

[1] = β-carotene-linoleic acid assay (inhibition of lipid peroxidation); conditions: for β-Carotene-linoleic acid assay Inhibition (%): at 200 µg/mL
Procedure: (§2) Antioxidant activities of all extracts were assessed by using different methods including β-carotene-linoleic acid assay, DPPH assay, ABTS assay, CUPRAC assay and Metal chelating assay. […] The DPPH assay was performed by using a spectrophotometer according to typical methods documented previously[23]. The ABTS^+assay was carried out as described previously by Re et al., (1999)[24]. The cupric reducing antioxidant capacity (CUPRAC) was evaluated by following the method published Apak et al., (2004)[25]. α-tocopherol and butylated hydroxy anisole (BHA) were used as antioxidant standards to compare the β-carotene-linoleic acid, DPPH, ABTS and CUPRAC assays. The metal chelating assay of extracts for Fe^+2 was performed by using a spectrophotometer as the method reported by Tel et al., (2012)[26]. Ethylenediaminetetraacetic acid (EDTA) was used as a standard.
(§3) IC50 values were calculated using a graph plotted between concentration (µg/mL) and percentage inhibition (%). A graph that plotted absorbance against concentration (µg/mL) was used to determine A0.50 values.

[2] = DPPH free radical scavenging assay; conditions: for DPPH assay Inhibition (%): at 200 µg/mL
Procedure: as §2, §3

[3] = ABTS cation radical scavenging assay; conditions: for ABTS assay Inhibition (%): at 200 µg/mL
Procedure: as §2, §3

[4] = CUPRAC (cupric reducing antioxidant capacity) assay; conditions: for CUPRAC assay Absorbance: at 200 µg/mL; for CUPRAC assay A0.50: concentration giving absorbance of 0.50
Procedure: as §2, §3

BChE = molecular target: T2, BChE (Equus caballus, UniProt P81908); test: Butyrylcholinesterase inhibition (DTNB spectrophotometric); type: biochemical, horse
T2 construct: host or cells: equine serum
T2 sequence (P81908 whole entry): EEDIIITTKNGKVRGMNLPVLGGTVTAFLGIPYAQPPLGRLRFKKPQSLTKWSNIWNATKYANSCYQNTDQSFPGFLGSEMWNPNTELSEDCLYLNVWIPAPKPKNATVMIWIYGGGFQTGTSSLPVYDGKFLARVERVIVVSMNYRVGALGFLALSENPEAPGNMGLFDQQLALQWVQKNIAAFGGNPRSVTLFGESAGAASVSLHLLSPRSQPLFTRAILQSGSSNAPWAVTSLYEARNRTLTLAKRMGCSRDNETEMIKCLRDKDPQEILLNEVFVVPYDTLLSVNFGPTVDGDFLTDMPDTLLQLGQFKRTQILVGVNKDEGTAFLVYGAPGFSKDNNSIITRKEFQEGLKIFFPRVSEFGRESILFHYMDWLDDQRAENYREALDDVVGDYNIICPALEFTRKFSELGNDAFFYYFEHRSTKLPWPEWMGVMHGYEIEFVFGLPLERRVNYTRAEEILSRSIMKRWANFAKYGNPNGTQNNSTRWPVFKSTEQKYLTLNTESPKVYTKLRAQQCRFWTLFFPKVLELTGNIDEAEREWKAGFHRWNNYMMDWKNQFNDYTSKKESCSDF
Procedure: The inhibitory activities of acetylcholinesterase and butyrylcholinesterase enzymes of the extracts were determined using spectrophotometer following the protocol described by Deveci et al., (2019) with slight modifications[27]. Acetylthiocholine iodide and butyrylthiocholine chloride were utilized as reaction substrates, while AChE from electric eels and BChE from horse serum were applied. Employing DTNB (5,5′-Dithio-bis(2-nitrobenzoic) acid), the cholinesterase activity was measured. In a nutshell, 130 µL of 100 mM sodium phosphate buffer (pH 8.0), 10 µL of sample solution at different concentrations, and 20 µL of enzyme (AChE or BChE) solution in buffer were mixed and incubated for 15 min at 25 °C, and 20 µL of 0.5 mM DTNB was added. Following that, 0.71 mM, 20 µL of acetylthiocholine iodide or 0.2 mM, 20 µL of butyrylthiocholine chloride were added to initiate the reaction. Utilizing a 96-well microplate reader, the hydrolysis of these substrates was observed spectrophotometrically by the formation of a yellow 5-thio-2-nitrobenzoate anion at a wavelength of 412 nm.
as §3

tyrosinase = test: Tyrosinase inhibition (L-DOPA substrate); type: biochemical; conditions: at 200 µg/mL
Procedure: Tyrosinase enzyme inhibitory activity was measured by the spectrophotometric method as described by Masuda et al., (2005)[29]. L-DOPA was utilized as substrate of the reaction. 150 µL of sodium phosphate buffer (pH 6.8, 100 mM), 10 µL of sample and 20 µL of tyrosinase enzyme solution in buffer were mixed and incubated for 10 min at 37 °C. Following incubation, 20 µL of L-DOPA was added. The absorbances in a 96-well microplate were monitored at 475 nm after 10 min of incubation at 37 °C.
as §1

urease = urease (Canavalia ensiformis, UniProt P07374); type: biochemical, jack bean
urease, sequence (P07374 whole entry, looked up): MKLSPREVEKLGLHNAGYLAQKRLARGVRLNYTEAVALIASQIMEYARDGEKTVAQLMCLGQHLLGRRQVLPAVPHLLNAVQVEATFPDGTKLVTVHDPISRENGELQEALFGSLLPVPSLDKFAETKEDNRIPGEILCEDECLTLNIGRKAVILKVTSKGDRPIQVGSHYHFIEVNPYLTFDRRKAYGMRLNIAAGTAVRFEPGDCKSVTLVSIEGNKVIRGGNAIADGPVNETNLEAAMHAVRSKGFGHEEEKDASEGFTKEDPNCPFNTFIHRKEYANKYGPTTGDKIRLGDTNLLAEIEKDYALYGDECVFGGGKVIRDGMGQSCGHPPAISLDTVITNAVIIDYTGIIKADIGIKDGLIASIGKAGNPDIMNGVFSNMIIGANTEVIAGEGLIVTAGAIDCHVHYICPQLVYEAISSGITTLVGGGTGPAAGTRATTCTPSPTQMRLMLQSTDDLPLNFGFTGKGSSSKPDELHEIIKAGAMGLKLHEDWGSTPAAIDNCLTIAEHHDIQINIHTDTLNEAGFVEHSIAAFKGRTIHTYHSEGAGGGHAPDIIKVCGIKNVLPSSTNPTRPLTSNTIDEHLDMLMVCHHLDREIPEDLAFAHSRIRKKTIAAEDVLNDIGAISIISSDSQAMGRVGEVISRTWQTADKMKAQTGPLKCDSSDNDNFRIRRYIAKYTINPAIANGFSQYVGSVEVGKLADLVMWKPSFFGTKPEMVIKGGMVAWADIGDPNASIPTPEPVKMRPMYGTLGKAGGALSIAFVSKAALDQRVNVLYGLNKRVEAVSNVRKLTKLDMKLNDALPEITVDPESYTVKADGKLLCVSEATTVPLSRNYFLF

Procedure for Metal chelating assay: as §2, §3

With `C[C@H]1O[C@H](O[C@H]2[C@H](O)[C@@H](O)[C@@H](O[C@H]3[C@H](O)[C@@H](O)C(O)O[C@@H]3CO)O[C@@H]2CO)[C@H](O)[C@@H](O)[C@@H]1N[C@H]1C=C(CO)[C@@H](O)[C@H](O)[C@H]1O` (stereo partly drawn) [Acarbose] the “α-glucosidase Inhibition (%)” value (α-glucosidase) was 56.70 ± 0.75% and the inhibition at 200 µg/mL (α-amylase) was 82.1 ± 0.27%.
In the case of `COc1ccc(O)c(C(C)(C)C)c1` [BHA, butylated hydroxyanisole], the “β-Carotene-linoleic acid assay IC50” value [1] is reported as 1.50 ± 0.03 µg/mL, the “β-Carotene-linoleic acid assay Inhibition (%)” value [1] is reported as 96.20 ± 0.28% and the “DPPH assay IC50” value [2] is reported as 19.50 ± 0.30 µg/mL. For the same molecule, the “DPPH assay Inhibition (%)” value [2] was 87.90 ± 0.44%, the “ABTS assay IC50” value [3] was 12.70 ± 0.10 µg/mL and the “ABTS assay Inhibition (%)” value [3] was 88.93 ± 0.21%. For the same molecule, the “CUPRAC assay Absorbance” value [4] was 2.45 ± 0.07 and the “CUPRAC assay A0.50” value [4] was 25.40 ± 0.42 µg/mL.
For `O=C(O)CN(CCN(CC(=O)O)CC(=O)O)CC(=O)O` [EDTA, ethylenediaminetetraacetic acid], the “Metal chelating assay IC50” value (Metal chelating assay) was 5.50 ± 0.25 µg/mL and the “Metal chelating assay Inhibition (%)” value (Metal chelating assay; at 200 µg/mL) was 94.40 ± 0.35%.
Molecule `COc1ccc2c3c1O[C@H]1C[C@@H](O)C=C[C@@]31CCN(C)C2` [Galantamine, galantamine] has an inhibition at 200 µg/mL (BChE) of 79.43 ± 0.6%.
With `O=c1cc(CO)occ1O` [Kojic acid] the “Tyrosinase inhibitory Inhibition (%)” value (tyrosinase) was 83.54 ± 0.56%.
With `NC(N)=S` [Thiourea, thiourea] the “Urease inhibitory IC50” value (urease) was 8.20 ± 0.36 µg/mL and the “Urease inhibitory Inhibition (%)” value (urease; at 200 µg/mL) was 87.37 ± 0.52%.
With `Cc1c(C)c2c(c(C)c1O)CC[C@@](C)(CCC[C@H](C)CCC[C@H](C)CCCC(C)C)O2` [α-Tocopherol, α-tocopherol] the “β-Carotene-linoleic acid assay IC50” value [1] was 2.10 ± 0.05 µg/mL, the “β-Carotene-linoleic acid assay Inhibition (%)” value [1] was 95.73 ± 0.44% and the “DPPH assay IC50” value [2] was 38.20 ± 0.50 µg/mL. For the same molecule, the “DPPH assay Inhibition (%)” value [2] was 84.25 ± 0.36%, the “ABTS assay IC50” value [3] was 34.75 ± 0.55 µg/mL and the “ABTS assay Inhibition (%)” value [3] was 83.63 ± 0.34%. For the same molecule, the “CUPRAC assay Absorbance” value [4] was 0.88 ± 0.03 and the “CUPRAC assay A0.50” value [4] was 60.45 ± 0.30 µg/mL.
